Structures are written as SMILES. Where two headings read alike, the source gives them in different places.

From US20150285817A1 (priority 2014, published 2015) come the findings set out here.

The subject of the assay is NSCLC patients. Particulars: VeriStrat poor patients, SCR samples.

Description: Briefly, by way of overview, 188 patients were enrolled in the study. Key entry criteria for the study were Stage III/IV NSCLC, treatment-naïve, adenocarcinoma histology, with the patients selected from an Asian population and being either non-smokers or light former smokers. Stratification of the population was based on Eastern Cooperative Oncology Group Performance Status (ECOG PS), smoking history, and gender.
In summary, we obtained pre-treatment serum samples from all 188 patients enrolled in the study described above. The samples were blinded and subject to MALDI-TOF mass-spectrometry. The resulting mass spectra were subject to predefined pre-processing steps, described below, and integrated intensity values at pre-defined m/z positions ranges, (i.e., feature values) in the pre-processed spectra were obtained. […]
The pre-treatment serum samples used in the foregoing analysis were largely derived from patient blood samples originally drawn immediately prior to drug dosing (hereafter called “C1D1” samples) in order to define baselines for drug pharmacokinetics and pharmacodynamics. Subsequently, a set of blood samples was analyzed, these being derived from blood draws taken from 1-12 days (median 4.4 days) prior to drug dosing (hereafter called “SCR” samples) for purposes of establishing patient eligibility for study with respect to blood chemistries.

Regarding `COc1cc2ncnc(Nc3ccc(F)c(Cl)c3)c2cc1OCCCN1CCOCC1` [gefitinib], the “median PFS” value stood at 4.1 months (EGFR SM+ population) and 2.7 months (ITT population).
